Measurements published in patent US9732298B2, “Process for the treatment of liquefied hydrocarbon gas using 3-(amino) propane-1,2-diol compounds” (Dow Global Technologies LLC, priority 2012, dated 2017).

What was measured:
[1] = Solubility of tested amine in heptane phase by gas chromatography (toluene internal standard); details: GC peak area of tested amine in neat heptane phase; heptane 10 g, toluene 0.1 g, amine 2.5 g, mixed at 20° C. for 1 hour, decanted 15 minutes; average of three injections
Procedure: A solution of heptane (10 g), toluene (0.1 g) and the tested amine (2.5 g) are mixed at 20° C. for 1 hours. The mixture is decanted for 15 minutes and the neat heptane phase is analyzed by gas chromatography using toluene as internal standard. The injection is repeated three times and peak areas of tested amine are averaged.

[2] = pKa by automated Mettler Toledo titration; format: physicochemical; details: aqueous amine solution; 50 weight % aqueous amine solutions titrated with 0.5 N hydrochloric acid

area counts [1]	pKa [2]	Compound
0 counts	9.3	NCC(O)CO (stereo not drawn) [APD]
290 counts	8.5	CN(CCO)CC(O)CO (stereo not drawn) [HEMAPD]
176 counts	9.7	CNCC(O)CO (stereo not drawn) [MAPD]
